Results from patent US20210041443A1, “WNT6 AS GLIOBLASTOMA ONCOGENIC BIOMARKER, AND USES OF INHIBITORS THEREOF” (UNIVERSIDADE DO MINHO, priority 2018, published 2021).

Tests used:
Assay in all cases: Cell viability of GBM cells exposed to WNT974
[1] = test system: GL42 cells (WNT6-positive GBM); assay type: cell-based
Protocol: (§1) FIG. 13. WNT6-positive GBM cell lines are more sensitive to WNT974 (an inhibitor of the WNT pathway) than a WNT6-negative GBM cell line. A. GBM cells positive to WNT6 (U373, […], and GL42) and negative to WNT6 (U87) were exposed to increasing doses of WNT974 (0, 10, 20, or 30 μM). The viability of U87 cells (WNT6-negative) was not affected by WNT inhibition, in contrast to WNT6-positive GBM cells (U373, SNB19, and GL42) that are highly-sensitive. B. Cells were exposed to increasing doses of WNT974 (0, 10, 20, or 30 μM) and to a fixed dose of TMZ (temozolomide, the gold standard chemotherapeutic drug used for GBM patients; U373: 400 μM; SNB19: 800 μM; GL42: 200 μM; U87: 800 μM).

[2] = test system: U373 cells (WNT6-positive GBM); assay type: cell-based, human
Protocol: as §1

[3] = test system: SNB19 cells (WNT6-positive GBM); assay type: cell-based, human
Protocol: as §1

[4] = test system: U87 cells (WNT6-negative GBM); assay type: cell-based, human
Protocol: as §1

Cc1cc(-c2ncc(CC(=O)Nc3ccc(-c4cnccn4)cn3)cc2C)ccn1 [WNT974]
cell viability, sensitivity to WNT inhibition ([1]; GL42 (WNT6-positive), WNT974 0, 10, 20, or 30 μM): highly-sensitive | cell viability, sensitivity to combinatorial therapy ([1]; GL42, WNT974 0, 10, 20, or 30 μM plus fixed dose TMZ 200 μM): higher sensitivity | cell viability, sensitivity to WNT inhibition ([2]; U373 (WNT6-positive), WNT974 0, 10, 20, or 30 μM): highly-sensitive | cell viability, sensitivity to combinatorial therapy ([2]; U373, WNT974 0, 10, 20, or 30 μM plus fixed dose TMZ 400 μM): higher sensitivity | cell viability, sensitivity to WNT inhibition ([3]; SNB19 (WNT6-positive), WNT974 0, 10, 20, or 30 μM): highly-sensitive | cell viability, sensitivity to combinatorial therapy ([3]; SNB19, WNT974 0, 10, 20, or 30 μM plus fixed dose TMZ 800 μM): higher sensitivity | cell viability, sensitivity to WNT inhibition ([4]; U87 (WNT6-negative), WNT974 0, 10, 20, or 30 μM): not affected | cell viability, sensitivity to combinatorial therapy ([4]; U87, WNT974 0, 10, 20, or 30 μM plus fixed dose TMZ 800 μM): no effect
